According to patent US20210290598A1, “MEDICAMENT USEFUL FOR CARDIOVASCULAR DISEASE” (NATIONAL UNIVERSITY CORPORATION OKAYAMA UNIVERSITY, priority 2018, published 2021):

Experiments:
Format in all cases: in vivo, rat
Dahl salt-sensitive rats [1] = experiment: Blood pressure in Dahl salt-sensitive rats on high-salt high-fat diet; conditions: for mean blood pressure: 12 weeks after start, mean±standard deviation, pemafibrate 0.5 mg/kg/day, pitavastatin 0.3 mg/kg/day, salt-containing HFD, control 193.6±6.6; for change in blood pressure compared with control group: 12 weeks, analysis of variance/Bonferroni
Procedure: (§1) Drug efficacy was evaluated on Dahl salt-sensitive rats (Dahl-Iwai S, 7 weeks old, Japan SLC, Inc.) fed on a 8% salt-containing HFD (High Fat Diet: 29.4% fat content, CLEA Japan, Inc.) (4 groups in total: (1) control group, (2) pemafibrate (0.5 mg/kg/day) single-agent administration group, (3) pitavastatin (0.3 mg/kg/day) single-agent administration group, and (4) pemafibrate (0.5 mg/kg/day)+pitavastatin (0.3 mg/kg/day) combined administration group, with 10 animals for each group). Twelve weeks after the start of administration, the animals were euthanized after measuring their blood pressure, and the weight of the isolated hearts and the endothelial function of the isolated thoracic aortas were measured with a Magnus apparatus. The measurement with the Magnus apparatus was performed according to the standard method. That is, a ring preparation of the isolated thoracic aorta was prepared, suspended in a Magnus tube in Krebs-Henseleit solution, loaded with a tension of 1 g, and constricted with 0.3 μM phenylephrine. Then, acetylcholine (10^−9 to 10^−5 M) was added cumulatively, and the relaxation response was measured. Finally, […] was obtained with 100 μM papaverine, and the relaxation rate was evaluated. When measuring with the Magnus apparatus, the blood vessels of normal rats were also evaluated in addition to the four groups, and were used as a control group. In addition, the expression level of phosphorylated endothelial nitric oxide synthase (phospho-eNOS) was evaluated by Western blotting according to the standard method, using the isolated aortas.

[2] = system: isolated thoracic aorta of Dahl salt-sensitive rats; experiment: Endothelial function of isolated thoracic aorta, Magnus apparatus, acetylcholine relaxation response; conditions: 12 weeks dosing; aorta ring constricted with 0.3 μM phenylephrine, cumulative acetylcholine; mixed effect model, Bonferroni
Procedure: as §1, with “That is, a ring preparation of the isolated thoracic aorta was prepared, suspended in a Magnus tube in Krebs-Henseleit solution, loaded with a tension of 1 g, and constricted with 0.3 μM phenylephrine.” left out

[3] = system: phosphorylated endothelial nitric oxide synthase (phospho-eNOS); experiment: Expression level of phospho-eNOS in isolated aortas by Western blotting; conditions: 12 weeks dosing
Procedure: as §1, with “That is, a ring preparation of the isolated thoracic aorta was prepared, suspended in a Magnus tube in Krebs-Henseleit solution, loaded with a tension of 1 g, and constricted with 0.3 μM phenylephrine.” left out

Dahl salt-sensitive rats [4] = experiment: Weight of isolated hearts of Dahl salt-sensitive rats on high-salt high-fat diet; conditions: for heart weight: 12 weeks after start, mean±standard deviation, pemafibrate 0.5 mg/kg/day, pitavastatin 0.3 mg/kg/day, salt-containing HFD, control 1.74±0.1; for change in heart weight compared with control group: 12 weeks, analysis of variance/Bonferroni
Procedure: as §1

| SMILES | mean blood pressure (Dahl salt-sensitive rats [1]) | change in blood pressure compared with control group (Dahl salt-sensitive rats [1]) | vasodilatory responsiveness as a whole compared with control group [2] | expression level of phospho-eNOS compared to control group [3] | heart weight (Dahl salt-sensitive rats [4]) | change in heart weight compared with control group (Dahl salt-sensitive rats [4]) |
| --- | --- | --- | --- | --- | --- | --- |
| CC[C@@H](Oc1cccc(CN(CCCOc2ccc(OC)cc2)c2nc3ccccc3o2)c1)C(=O)O [pemafibrate, (2R)-2-[3-({1,3-benzoxazol-2-yl[3-(4-methoxyphenoxy)propyl]amino}methyl)phenoxy]butanoic acid] | 192.6±8.3 mmHg | no change was observed | showed a trend toward improvement in vasodilatory responsiveness | tendency to increase | 1.48 ± 0.1 g | significantly lower than that of the control |
| O=C(O)C[C@H](O)C[C@H](O)/C=C/c1c(C2CC2)nc2ccccc2c1-c1ccc(F)cc1 [pitavastatin] | 196.9±8.4 mmHg | no change was observed | showed a trend toward improvement in vasodilatory responsiveness | tendency to increase | 1.76 ± 0.2 g | no change compared to the control |
